Reference: ChEMBL document CHEMBL4152353, “Synthesis of DNA interactive C3-trans-cinnamide linked β-carboline conjugates as potential cytotoxic and DNA topoisomerase I inhibitors” (Bioorg Med Chem, 2018)
Active and inactive are the calls of the source. The calls are words filed in the database; no cut-off is given here.

Tests used:
[1] = tested on: Calf thymus DNA; assay: Binding affinity to calf thymus DNA assessed as hypochromic shift at 50 uM by UV-Vis absorption spectrophotometric method; format: nucleic-acid assay; settings: Bos taurus
[2] = tested on: MCF7; assay: Cytotoxicity against human MCF7 cells assessed as cell death at 1 uM after 24 hrs by propidium iodide/Hoechst 33342 staining based fluorescence microscopic analysis; format: functional
[3] = tested on: A549; assay: Cytotoxicity against human A549 cells after 48 hrs by MTT assay; format: functional, cell-based; settings: A549, 48 h
[4] = tested on: MCF7; assay: Cytotoxicity against human MCF7 cells after 48 hrs by MTT assay; format: functional, cell-based; settings: MCF7, 48 h
[5] = tested on: B16; assay: Cytotoxicity against mouse B16 cells after 48 hrs by MTT assay; format: functional, cell-based; settings: B16, 48 h
[6] = tested on: HeLa; assay: Cytotoxicity against human HeLa cells after 48 hrs by MTT assay; format: functional, cell-based
[7] = tested on: NIH3T3; assay: Cytotoxicity against mouse NIH/3T3 cells after 48 hrs by MTT assay; format: cell-based; settings: NIH3T3, 48 h
[8] = tested on: MCF7; assay: Cell cycle arrest in human MCF7 cells assessed as accumulation at subG1 phase at 0.5 uM after 48 hrs by propidium iodide staining based flow cytometry (reference value: 3.04%); format: functional
[9] = tested on: MCF7; assay: Cell cycle arrest in human MCF7 cells assessed as accumulation at subG1 phase at 1 uM after 48 hrs by propidium iodide staining based flow cytometry (reference value: 3.04%); format: functional
[10] = tested on: MCF7; assay: Cell cycle arrest in human MCF7 cells assessed as accumulation at G1 phase at 0.5 uM after 48 hrs by propidium iodide staining based flow cytometry (reference value: 45.98%); format: functional
[11] = tested on: MCF7; assay: Cell cycle arrest in human MCF7 cells assessed as accumulation at G1 phase at 1 uM after 48 hrs by propidium iodide staining based flow cytometry (reference value: 45.98%); format: functional
[12] = tested on: MCF7; assay: Cell cycle arrest in human MCF7 cells assessed as accumulation at S-phase at 0.5 uM after 48 hrs by propidium iodide staining based flow cytometry (reference value: 15.64%); format: functional
[13] = tested on: MCF7; assay: Cell cycle arrest in human MCF7 cells assessed as accumulation at S-phase at 1 uM after 48 hrs by propidium iodide staining based flow cytometry (reference value: 15.64%); format: functional
[14] = tested on: MCF7; assay: Cell cycle arrest in human MCF7 cells assessed as accumulation at G2/M-phase at 0.5 uM after 48 hrs by propidium iodide staining based flow cytometry (reference value: 33.65%); format: functional
[15] = tested on: MCF7; assay: Cell cycle arrest in human MCF7 cells assessed as accumulation at G2/M-phase at 1 uM after 48 hrs by propidium iodide staining based flow cytometry (reference value: 33.65%); format: functional
[16] = tested on: MCF7; assay: Induction of apoptosis in human MCF7 cells assessed as increase in number of wrinkled cells at 1 uM after 48 hrs by Hoechst 33342 staining based confocal microscopic analysis; format: functional, cell-based
[17] = tested on: MCF7; assay: Induction of apoptosis in human MCF7 cells assessed as DNA fragmentation at 1 uM after 48 hrs by Hoechst 33342 staining based confocal microscopic analysis; format: functional, cell-based
[18] = tested on: NIH3T3; assay: Cytotoxicity against mouse NIH/3T3 cells assessed as cell death at 1 uM after 24 hrs by propidium iodide/Hoechst 33342 staining based fluorescence microscopic analysis; settings: nih3t3, 24 h
[19] = tested on: Calf thymus DNA; assay: Binding affinity to calf thymus DNA assessed as maximum absorption peak at 50 uM by UV-Vis absorption spectrophotometric method; format: nucleic-acid assay; settings: Bos taurus
[20] = tested on: Calf thymus DNA; assay: Binding affinity to calf thymus DNA at 50 uM by UV-Vis absorption spectrophotometric method; format: nucleic-acid assay; settings: Bos taurus
[21] = tested on: Calf thymus DNA; assay: Binding affinity to calf thymus DNA assessed as fluorescence quenching at 10 uM by spectrofluorimetric method; format: nucleic-acid assay; settings: Bos taurus
[22] = tested on: Calf thymus DNA; assay: Binding affinity to calf thymus DNA assessed as DNA winding at 1:1 to 1:2 ratio of DNA to compound by circular dichroism analysis; format: nucleic-acid assay; settings: Bos taurus
[23] = tested on: Calf thymus DNA; assay: Binding affinity to calf thymus DNA assessed as increase in viscosity at 15 uM by viscometric method; format: nucleic-acid assay; settings: Bos taurus
[24] = target: T1, Topoisomerase I (Bos taurus, UniProt Q2HPH0); assay: Inhibition of calf thymus topoisomerase 1-mediated relaxation of supercoiled pBR322 DNA measured after 30 mins by agarose gel electrophoresis method
T1 sequence (Q2HPH0 whole entry): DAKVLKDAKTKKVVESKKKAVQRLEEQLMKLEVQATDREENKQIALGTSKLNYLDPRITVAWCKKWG

[25] = tested on: MCF7; assay: Induction of apoptosis in human MCF7 cells assessed as viable cells at 0.5 uM after 48 hrs by Annexin-V-FITC/propidium iodide staining based flow cytometry (reference value: 96.18%); format: functional; settings: MCF7, 48 h, read-out: Activity
[26] = tested on: MCF7; assay: Induction of apoptosis in human MCF7 cells assessed as early apoptotic cells at 0.5 uM after 48 hrs by Annexin-V-FITC/propidium iodide staining based flow cytometry (reference value: 0.09%); format: functional
[27] = tested on: MCF7; assay: Induction of apoptosis in human MCF7 cells assessed as late apoptotic cells at 0.5 uM after 48 hrs by Annexin-V-FITC/propidium iodide staining based flow cytometry (reference value: 0.06%); format: functional
[28] = tested on: MCF7; assay: Induction of apoptosis in human MCF7 cells assessed as necrotic cells at 0.5 uM after 48 hrs by Annexin-V-FITC/propidium iodide staining based flow cytometry (reference value: 3.67%); format: functional
[29] = tested on: MCF7; assay: Induction of apoptosis in human MCF7 cells assessed as viable cells at 1 uM after 48 hrs by Annexin-V-FITC/propidium iodide staining based flow cytometry (reference value: 96.18%); format: functional; settings: MCF7, 48 h, read-out: Activity
[30] = tested on: MCF7; assay: Induction of apoptosis in human MCF7 cells assessed as early apoptotic cells at 1 uM after 48 hrs by Annexin-V-FITC/propidium iodide staining based flow cytometry (reference value: 0.09%); format: functional
[31] = tested on: MCF7; assay: Induction of apoptosis in human MCF7 cells assessed as late apoptotic cells at 1 uM after 48 hrs by Annexin-V-FITC/propidium iodide staining based flow cytometry (reference value: 0.06%); format: functional
[32] = tested on: MCF7; assay: Induction of apoptosis in human MCF7 cells assessed as necrotic cells at 1 uM after 48 hrs by Annexin-V-FITC/propidium iodide staining based flow cytometry (reference value: 3.67%); format: functional

For `COc1ccc(-c2nc(CNC(=O)/C=C/c3cccc(O)c3)cc3c2[nH]c2ccccc23)cc1`, the Activity [1] was “inactive”, the Activity [2] was “Active” and the IC50 [3] was 18.9 nM. The IC50 [4] was 13.8 nM, the IC50 [5] was 16.3 nM and the IC50 [6] was 22.3 nM. The IC50 [7] was 37.2 nM, the Activity [8] was 4.61% and the Activity [9] was 4.32%. It also gave an Activity [10] of 46.11%, an Activity [11] of 40.12% and an Activity [12] of 16.81%. For the same molecule, the Activity [13] was 16.29%, the Activity [14] was 32.46% and the Activity [15] was 39.25%. For the same molecule, the Activity [16] was “Active”, the Activity [17] was “Active” and the Activity [18] was “Non-Toxic”. For the same molecule, the Activity [19] was 287 to 369 nm, the K [20] was 1 ×10³ /M and the Activity [21] was “Active”. The Activity [22] was “Active”, the Activity [23] was “Active” and the IC50 [24] was 14 nM. The viability at 0.5 µM [25] was 81.3%, the Activity [26] was 9.75% and the Activity [27] was 2.5%. The Activity [28] was 6.45%, the viability at 1 µM [29] was 77.3% and the Activity [30] was 9.46%. The Activity [31] was 3.69% and the Activity [32] was 9.55%.
